This passage reports Emax and EC50 results from patent publication US11066369B2, “N-(pyridin-2-yl)pyridine-sulfonamide derivatives and their use in the treatment of disease” (Novartis AG, priority 2016, dated 2021).

A word on the EC50: it is the midpoint of the concentration-response curve.

In the assay the target is T1, horseradish peroxidase (HRP) tagged delF508-CFTR (Homo sapiens, UniProt P13569, DEL508-508).
T1 construct: expressed in transfected cells
As to the kind of experiment: Measurement of delF508-CFTR-HRP surface expression in CFBE41o- cells.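 As to DelF508-CFTR-HRP Amax %: percent efficacy relative to reference corrector lumacaftor.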 The note with it: CFBE41o- cells; for Emax: read-out: DelF508-CFTR-HRP Amax %; for EC50: read-out: DelF508-CFTR-HRP EC50. Format: cell-based. In short, it runs like this:
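CFBE41o- bronchial epithelial cells stably expressing delF508-CFTR with HRP in the fourth extracellular loop; expression induced 48h with 500 ng/mL doxycycline, then compounds added (top 10 μM, 10-point 3-fold series, ≤0.5% DMSO) for 24h at 37° C. Surface HRP measured by luminescence with cell-impermeant substrate; EC50 from logistic fit of triplicates, plate-normalized to lowest concentration; efficacy also relative to a reference corrector.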

The mark [1] stands for this setting: delF508-CFTR-HRP surface expression.
[2] abbreviates: mean of at least two replicates.

Counter-ions that a name gives are not always drawn. Like-named read-outs stand apart in the source and are kept apart here.

T1 sequence (P13569 with tags, fused parts or gaps DEL508-508): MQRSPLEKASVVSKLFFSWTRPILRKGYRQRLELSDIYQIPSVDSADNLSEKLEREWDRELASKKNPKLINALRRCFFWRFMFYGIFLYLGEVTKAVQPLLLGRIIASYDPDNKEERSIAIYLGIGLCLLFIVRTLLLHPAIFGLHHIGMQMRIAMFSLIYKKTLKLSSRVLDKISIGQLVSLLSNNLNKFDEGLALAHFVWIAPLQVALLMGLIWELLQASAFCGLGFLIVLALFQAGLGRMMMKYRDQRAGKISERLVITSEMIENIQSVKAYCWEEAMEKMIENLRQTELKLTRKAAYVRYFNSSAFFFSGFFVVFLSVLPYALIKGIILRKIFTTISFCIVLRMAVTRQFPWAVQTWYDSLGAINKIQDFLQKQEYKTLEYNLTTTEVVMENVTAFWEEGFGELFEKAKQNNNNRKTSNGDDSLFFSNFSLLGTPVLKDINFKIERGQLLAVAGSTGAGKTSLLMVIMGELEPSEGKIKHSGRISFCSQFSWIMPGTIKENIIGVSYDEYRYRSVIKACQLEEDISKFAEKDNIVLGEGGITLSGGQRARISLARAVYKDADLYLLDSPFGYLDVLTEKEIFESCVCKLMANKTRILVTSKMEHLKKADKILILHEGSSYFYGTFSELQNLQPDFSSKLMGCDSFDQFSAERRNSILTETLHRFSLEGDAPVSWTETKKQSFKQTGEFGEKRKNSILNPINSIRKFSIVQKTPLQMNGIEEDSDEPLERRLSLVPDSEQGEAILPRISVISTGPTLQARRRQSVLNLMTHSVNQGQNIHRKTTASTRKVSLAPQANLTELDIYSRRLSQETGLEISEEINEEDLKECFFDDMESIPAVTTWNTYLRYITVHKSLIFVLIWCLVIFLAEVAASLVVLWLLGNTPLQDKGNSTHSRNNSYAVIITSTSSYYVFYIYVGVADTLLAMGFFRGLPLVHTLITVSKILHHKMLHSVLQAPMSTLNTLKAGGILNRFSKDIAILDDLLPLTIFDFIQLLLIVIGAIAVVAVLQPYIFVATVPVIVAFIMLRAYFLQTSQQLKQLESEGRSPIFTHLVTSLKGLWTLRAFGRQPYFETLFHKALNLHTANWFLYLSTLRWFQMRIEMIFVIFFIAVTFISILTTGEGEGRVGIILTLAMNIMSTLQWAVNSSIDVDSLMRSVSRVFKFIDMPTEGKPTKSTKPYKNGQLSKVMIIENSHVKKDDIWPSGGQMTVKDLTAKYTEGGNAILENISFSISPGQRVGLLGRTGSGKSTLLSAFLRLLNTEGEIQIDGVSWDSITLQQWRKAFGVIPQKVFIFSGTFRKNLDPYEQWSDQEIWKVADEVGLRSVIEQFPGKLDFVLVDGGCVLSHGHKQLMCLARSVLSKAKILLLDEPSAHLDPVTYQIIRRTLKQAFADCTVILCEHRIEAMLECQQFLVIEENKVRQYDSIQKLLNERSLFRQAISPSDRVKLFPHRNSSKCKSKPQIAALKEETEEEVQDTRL

For the molecule `Cc1ccccc1-c1nc(NS(=O)(=O)c2cccc(N[C@H]3CCNC3)n2)ccc1C(F)(F)F` [Example 124, (S)-6-(pyrrolidin-3-ylamino)-N-(6-(o-tolyl)-5-(trifluoromethyl)pyridin-2-yl)pyridine-2-sulfonamide Hydrochloride], under setting [1], the Emax is 148% and the half-maximal effective concentration (EC50) stood at 4610 nM.
For `Cc1ccccc1-c1nc(NS(=O)(=O)c2cccc(N3CC(C(=O)O)C3)n2)ccc1C(F)(F)F` [Example 330, 1-(6-(N-(6-(o-tolyl)-5-(trifluoromethyl)pyridin-2-yl)sulfamoyl)pyridin-2-yl)azetidine-3-carboxylic Acid], in that order: 9.1% and 2300 nM.
The like results for `Nc1cccc(S(=O)(=O)Nc2ccc(Cl)c(-c3ccc(C(F)(F)F)cc3)n2)n1` [Example 94, 6-amino-N-(5-chloro-6-(4-(trifluoromethyl)phenyl)pyridin-2-yl)pyridine-2-sulfonamide] were, in that order, 20.3% and 3190 nM.
For `CCOC(=O)C1(C)CCN(c2cccc(S(=O)(=O)Nc3ccc(C(F)(F)F)c(-c4cccc(F)c4C)n3)n2)CC1` [Example 258, ethyl 1-(6-{[6-(3-fluoro-2-methylphenyl)-5-(trifluoromethyl)pyridin-2-yl]sulfamoyl}pyridin-2-yl)-4-methylpiperidine-4-carboxylate], in that order: 828% and 1390 nM.
For `CC1(C(=O)O)CCN(c2cccc(S(=O)(=O)Nc3ccc(C(F)(F)F)c(-c4ccccc4OCC(F)(F)F)n3)n2)CC1` [Example 381, 4-methyl-1-(6-(N-(6-(2-(2,2,2-trifluoroethoxy)phenyl)-5-(trifluoromethyl)pyridin-2-yl)sulfamoyl)pyridin-2-yl)piperidine-4-carboxylic Acid], the half-maximal effective concentration (EC50) under setting [2] stood at 2510 nM. Besides, the Emax (surface expression Amax) worked out at 284%.
On to `Cc1cccc(C)c1-c1ccc(Cl)c(NS(=O)(=O)c2cccc(N)n2)n1` [Example 96, 6-amino-N-(3-chloro-6-(2,6-dimethylphenyl)pyridin-2-yl)pyridine-2-sulfonamide], for which, under setting [1], the Emax came to 10% and the EC50 was 4330 nM.
In the case of `CCOc1ccccc1-c1nc(NS(=O)(=O)c2cccc(N3CCC[C@@](C)(C(=O)O)C3)n2)ccc1C(F)(F)F` [Example 328, (R)-1-(6-(N-(6-(2-ethoxyphenyl)-5-(trifluoromethyl)pyridin-2-yl)sulfamoyl)pyridin-2-yl)-3-methylpiperidine-3-carboxylic Acid], the EC50 under setting [1] stood at 1790 nM.
With `CC1(C(=O)O)CCCN(c2cccc(S(=O)(=O)Nc3ccc(Cl)c(-c4ccccc4C4CCC4)n3)n2)C1` (centres unmarked) [Example 389, 1-(6-(N-(5-chloro-6-(2-cyclobutylphenyl)pyridin-2-yl)sulfamoyl)pyridin-2-yl)-3-methylpiperidine-3-carboxylic Acid], the concentration giving a half-maximal response (EC50) under setting [2] is 1040 nM. In addition, the Emax (surface expression Amax) worked out at 749%.
Consider `CC(C)Oc1ccc(Cl)cc1-c1nc(NS(=O)(=O)c2cccc(N3CCCC(C)(C(=O)O)C3)n2)ccc1C(F)(F)F` (centres unmarked) [Example 433, 1-(6-(N-(6-(5-chloro-2-isopropoxyphenyl)-5-(trifluoromethyl)pyridin-2-yl)sulfamoyl)pyridin-2-yl)-3-methylpiperidine-3-carboxylic Acid], for which the EC50 under setting [2] amounted to 436 nM. The Emax (surface expression Amax) worked out at 571%.
For the molecule `COC(=O)C1(NC(=O)OC(C)(C)C)CCN(c2cccc(S(=O)(=O)Nc3ccc(Cl)c(-c4c(C)cccc4C)n3)n2)CC1` [Example 267, methyl 4-{[(tert-butoxy)carbonyl]amino}-1-(6-{[5-chloro-6-(2,6-dimethylphenyl)pyridin-2-yl]sulfamoyl}pyridin-2-yl)piperidine-4-carboxylate], under setting [1], the Emax amounted to 887% and the EC50 amounted to 1260 nM.
The like results for `CC(C)c1ccccc1-c1nc(NS(=O)(=O)c2ccc(N)nc2)ccc1Cl` [Example 45, 6-amino-N-(5-chloro-6-(2-isopropylphenyl)pyridin-2-yl)pyridine-3-sulfonamide] were, in that order, 345% and 1240 nM.
Regarding `CCCC1(C(=O)O)CCCN(c2cccc(S(=O)(=O)Nc3ccc(Cl)c(-c4ccccc4C)n3)n2)C1` (centres unmarked) [Example 456, 1-(6-(N-(5-chloro-6-(o-tolyl)pyridin-2-yl)sulfamoyl)pyridin-2-yl)-3-propylpiperidine-3-carboxylic Acid], the 50% effective concentration (EC50) under setting [2] came to 1360 nM. Further, the Emax (surface expression Amax) turned out to be 465%.
As to `Cc1ccccc1-c1nc(NS(=O)(=O)c2cccc(N)n2)ccc1Br` [Example 23, 6-amino-N-(5-bromo-6-(o-tolyl)pyridin-2-yl)pyridine-2-sulfonamide], under setting [1], the Emax stood at 486% and the EC50 is 1880 nM.
The like results for `Cc1ccc(C#N)cc1-c1nc(NS(=O)(=O)c2ccnc(N)c2)ccc1C(F)(F)F` [Example 64, 2-amino-N-(6-(5-cyano-2-methylphenyl)-5-(trifluoromethyl)pyridin-2-yl)pyridine-4-sulfonamide] were, in that order, 223% and 1960 nM.
Regarding `Cc1ccccc1-c1nc(NS(=O)(=O)c2cccc(N[C@H]3C[C@](C)(C(=O)O)C3)n2)ccc1C(F)(F)F` [Example 365, (1r,3s)-1-methyl-3-[(6-{[6-(2-methylphenyl)-5-(trifluoromethyl)pyridin-2-yl]sulfamoyl}pyridin-2-yl)amino]cyclobutane-1-carboxylic Acid], under setting [1], the Emax amounted to 166% and the EC50 is 1890 nM.
Take `Cc1ccc(F)cc1-c1nc(NS(=O)(=O)c2cccc(N3C[C@@H]4CC[C@H]3CN4)n2)ccc1C(F)(F)F` [Example 200, 6-((1S,4S)-2,5-diazabicyclo[2.2.2]octan-2-yl)-N-(6-(5-fluoro-2-methylphenyl)-5-(trifluoromethyl)pyridin-2-yl)pyridine-2-sulfonamide Hydrochloride]: under setting [1], the Emax is 553% and the EC50 is 3170 nM.
Consider `CCCc1ccccc1-c1nc(NS(=O)(=O)c2cccc(N3CCC[C@@](C)(C(=O)O)C3)n2)ccc1C(F)(F)F` [Example 423, (R)-3-methyl-1-(6-(N-(6-(2-propylphenyl)-5-(trifluoromethyl)pyridin-2-yl)sulfamoyl)pyridin-2-yl)piperidine-3-carboxylic Acid], for which, under setting [2], the EC50 was 757 nM.
Take `CC1(C(=O)O)CCCN(c2cccc(S(=O)(=O)Nc3ccc(C(F)(F)F)c(-c4ccccc4CCO)n3)n2)C1` (centres unmarked) [Example 445, 1-(6-(N-(6-(2-(2-hydroxyethyl)phenyl)-5-(trifluoromethyl)pyridin-2-yl)sulfamoyl)pyridin-2-yl)-3-methylpiperidine-3-carboxylic Acid]: the EC50 under setting [2] came out at 2660 nM. The Emax (surface expression Amax) was found to be 94.1%.
For `CC1(C(=O)O)CCCN(c2cccc(S(=O)(=O)Nc3ccc(Cl)c(-c4ccccc4C4CC4)n3)n2)C1` (centres unmarked) [Example 431, 1-(6-(N-(5-chloro-6-(2-cyclopropylphenyl)pyridin-2-yl)sulfamoyl)pyridin-2-yl)-3-methylpiperidine-3-carboxylic Acid], in that order: 1730 nM and 763%.
The like results for `Cc1ccccc1-c1nc(NS(=O)(=O)c2cccc(N3CCC[C@@](C)(C(=O)O)C3)n2)ccc1C` [Example 409, (R)-3-methyl-1-(6-(N-(5-methyl-6-(o-tolyl)pyridin-2-yl)sulfamoyl)pyridin-2-yl)piperidine-3-carboxylic Acid] were, in that order, 1670 nM and 330%.
For `Cc1ccccc1-c1nc(NS(=O)(=O)c2cccc(N3CCC4(CC4C(=O)O)C3)n2)ccc1C(F)(F)F` (centres unmarked) [Example 419, 5-(6-(N-(6-(o-tolyl)-5-(trifluoromethyl)pyridin-2-yl)sulfamoyl)pyridin-2-yl)-5-azaspiro[2.4]heptane-1-carboxylic Acid], in that order: 2390 nM and 644%.
Take `CC(F)(F)c1ccccc1-c1nc(NS(=O)(=O)c2cccc(N)n2)ccc1Cl` [Example 48, 6-amino-N-(5-chloro-6-(2-(1,1-difluoroethyl)phenyl)pyridin-2-yl)pyridine-2-sulfonamide]: under setting [1], the Emax was determined as 334% and the half-maximal effective concentration (EC50) amounted to 2330 nM.
Take `Cc1c(F)cccc1-c1nc(NS(=O)(=O)c2cccc(N3CCn4cnnc4C3)n2)ccc1Cl` [Example 146, N-(5-chloro-6-(3-fluoro-2-methylphenyl)pyridin-2-yl)-6-(5,6-dihydro-[1,2,4]triazolo[4,3-a]pyrazin-7(8H)-yl)pyridine-2-sulfonamide]: under setting [1], the Emax is 59.1% and the EC50 worked out at 4280 nM.
For `COc1ccc(Cl)c(-c2nc(NS(=O)(=O)c3cccc(N4CCC(C)(C(=O)O)CC4)n3)ccc2Cl)c1` [Example 244, 1-(6-(N-(5-chloro-6-(2-chloro-5-methoxyphenyl)pyridin-2-yl)sulfamoyl)pyridin-2-yl)-4-methylpiperidine-4-carboxylic Acid], in that order: 222% and 3650 nM.
For `Nc1cccc(S(=O)(=O)Nc2ccc(Cl)c(-c3ccccc3F)n2)n1` [Example 69, 6-amino-N-(5-chloro-6-(2-fluorophenyl)pyridin-2-yl)pyridine-2-sulfonamide], in that order: 199% and 3300 nM.
For `O=S(=O)(Nc1ccc(Cl)c(-c2cccc(F)c2Cl)n1)c1cccc(N2CCNCC2)n1` [Example 159, N-(5-chloro-6-(2-chloro-3-fluorophenyl)pyridin-2-yl)-6-(piperazin-1-yl)pyridine-2-sulfonamide hydrochloride], in that order: 130% and 4420 nM.
